In the supplement of paper PMC11451515:

Tested on: P12-Ichikawa
Assay: cell viability relative to DMSO control; higher = less cytotoxic
Settings: 48 h
Outline: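 NOMO1, SEM and P12-Ichikawa leukemia cells spent at least four passages adapting to each medium before use. They were seeded at 500 cells/well (NOMO1, SEM) or 1000 cells/well (P12-Ichikawa) in 5 μl in 1536-well plates and pin-dosed with library compounds in DMSO at 11 threefold steps from 47 μM down to 0.79 nM. After 48 h at 37°C, CellTiter-Glo One luminescence was read. Viability is reported as a percentage of the DMSO wells on each plate, with cell-free wells as background.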

[1] = HPLM + 10% dialyzed FBS, 0.000781 µM
[2] = HPLM + 10% dialyzed FBS, 0.00234 µM
[3] = HPLM + 10% dialyzed FBS, 0.00702 µM
[4] = HPLM + 10% dialyzed FBS, 0.0211 µM
[5] = HPLM + 10% dialyzed FBS, 0.0632 µM
[6] = HPLM + 10% dialyzed FBS, 0.19 µM
[7] = HPLM + 10% dialyzed FBS, 0.569 µM
[8] = HPLM + 10% dialyzed FBS, 1.71 µM
[9] = HPLM + 10% dialyzed FBS, 5.12 µM
[10] = HPLM + 10% dialyzed FBS, 15.4 µM
[11] = HPLM + 10% dialyzed FBS, 46.1 µM
[12] = RPMI 5 mM glucose + 10% FBS, 0.000781 µM
[13] = RPMI 5 mM glucose + 10% FBS, 0.00234 µM
[14] = RPMI 5 mM glucose + 10% FBS, 0.00702 µM
[15] = RPMI 5 mM glucose + 10% FBS, 0.0211 µM
[16] = RPMI 5 mM glucose + 10% FBS, 0.0632 µM
[17] = RPMI 5 mM glucose + 10% FBS, 0.19 µM
[18] = RPMI 5 mM glucose + 10% FBS, 0.569 µM
[19] = RPMI 5 mM glucose + 10% FBS, 1.71 µM
[20] = RPMI 5 mM glucose + 10% FBS, 5.12 µM
[21] = RPMI 5 mM glucose + 10% FBS, 15.4 µM
[22] = RPMI 5 mM glucose + 10% FBS, 46.1 µM
[23] = RPMI 5 mM glucose + 10% dialyzed FBS, 0.000781 µM
[24] = RPMI 5 mM glucose + 10% dialyzed FBS, 0.00234 µM
[25] = RPMI 5 mM glucose + 10% dialyzed FBS, 0.00702 µM
[26] = RPMI 5 mM glucose + 10% dialyzed FBS, 0.0211 µM
[27] = RPMI 5 mM glucose + 10% dialyzed FBS, 0.0632 µM
[28] = RPMI 5 mM glucose + 10% dialyzed FBS, 0.19 µM
[29] = RPMI 5 mM glucose + 10% dialyzed FBS, 0.569 µM
[30] = RPMI 5 mM glucose + 10% dialyzed FBS, 1.71 µM
[31] = RPMI 5 mM glucose + 10% dialyzed FBS, 5.12 µM
[32] = RPMI 5 mM glucose + 10% dialyzed FBS, 15.4 µM
[33] = RPMI 5 mM glucose + 10% dialyzed FBS, 46.1 µM

Structure (SMILES)	cell viability [1]	cell viability [2]	cell viability [3]	cell viability [4]	cell viability [5]	cell viability [6]	cell viability [7]	cell viability [8]	cell viability [9]	cell viability [10]	cell viability [11]	cell viability [12]	cell viability [13]	cell viability [14]	cell viability [15]	cell viability [16]	cell viability [17]	cell viability [18]	cell viability [19]	cell viability [20]	cell viability [21]	cell viability [22]	cell viability [23]	cell viability [24]	cell viability [25]	cell viability [26]	cell viability [27]	cell viability [28]	cell viability [29]	cell viability [30]	cell viability [31]	cell viability [32]	cell viability [33]
Oc1ccc(-c2nc(-c3ccncc3)c(-c3ccc(F)cc3)[nH]2)cc1	115%	112%	118%	114%	124%	120%	130%	115%	64.3%	13%	5.07%	99.2%	99.7%	117%	111%	111%	126%	117%	115%	98.8%	60.7%	2.19%	103%	112%	113%	119%	123%	113%	130%	116%	82.7%	46%	6.46%
CN1C(=O)C(=C/2N(C(=O)N(C3CC3)C(=O)C2=C1/NC4=CC=C(I)C=C4F)C5=CC=CC(=C5)NC(C)=O)\C	121%	130%	122%	123%	113%	112%	101%	90.9%	12.8%	4.68%	4.28%																						
COc1cc([C@@H]2c3cc4c(cc3[C@@H](O)C3COC(=O)C32)OCO4)cc(OC)c1O (stereo partly specified)	86.8%	92.3%	88.4%	9.03%	95.5%	38.3%	9.82%	8.57%	5.22%	5.25%	4.78%	80.2%		92.1%	10.5%	102%	56.8%	14.4%	7.77%	6.85%	4.81%	5.33%	77.1%	91.5%	94.6%	22.6%	94.5%	63.7%	19%	12.9%	9.44%	7.81%	5.82%
NC/1=N/C(=O)C2=C([NH]C=C2CCC3=CC=C(C=C3)C(=O)N[C@@H](CCC(O)=O)C(O)=O)N1	106%	109%	106%	107%	99.8%	114%	105%	64.4%	35.4%	29.3%	28.2%	102%	113%	108%	107%	110%	108%	96.9%	90%	64.5%	54.9%	47.5%	96.5%	106%	103%	103%	104%	104%	99.1%	88.4%	56.1%	48.1%	44.4%
CCC[S+](=O)([O-])Nc1ccc(F)c(C(=O)c2c[nH]c3ncc(-c4ccc(Cl)cc4)cc23)c1F	116%	110%	107%	115%	114%	107%	108%	105%	99.9%	98.5%	93.5%	116%	109%	117%	110%	118%	110%	99.1%	110%	108%	96.4%	98.2%	124%	120%	122%	120%	125%	120%	113%	107%	108%	103%	95.2%
Oc1ccc(C2CNCCc3c2cc(O)c(O)c3Cl)cc1 (stereo unspecified)	92.6%	92.3%	86.9%	97.7%	92.7%	98.5%	92.4%	95.7%	96.1%	100%	99.4%	87%	98.4%	95.8%	96.8%	86.5%	98.8%	90.3%	98%	96.1%	103%	101%	90.3%	93.3%	80.2%	86.9%	84.7%	96.9%	86.1%	88.5%	94.1%	90%	92.7%
CCCCc1oc2ccccc2c1C(=O)c1cc(I)c(OCCN(CC)CC)c(I)c1	114%	114%	113%	109%	115%	102%	110%	104%	104%	104%	91.1%												106%	114%	115%	114%	111%	107%	116%	106%	103%	103%	94.5%
CC(=O)[C@H]1CC[C@H]2[C@@H]3C/C=C4/C[C@@H](O)CC[C@]4(C)[C@H]3CC[C@]12C	120%	124%	114%	116%	112%	120%	124%	115%	114%	114%	110%												112%	120%	129%	112%	124%	115%	126%	125%	112%	104%	103%
O=C1C(CCC(O)c2ccc(F)cc2)C(c2ccc(O)cc2)N1c1ccc(F)cc1 (stereo unspecified)	108%	112%	114%	116%	119%	124%	117%	117%	117%	120%	106%	114%	117%	123%	118%	122%	121%	126%	121%	127%	121%	117%	101%	106%	105%	117%	118%	111%	120%	116%	124%	114%	106%
Cc1nc(N)sc1-c1ccnc(Nc2ccc(N3CCOCC3)cc2)n1	97.4%	100%	108%	109%	112%	108%	111%	104%	19.4%	25%	43.8%	92.4%	107%	105%	107%	114%	113%	109%	116%	29.3%	24.6%	37.6%	97.6%	111%	112%	109%	112%	114%	112%	110%	35.4%	42%	38.5%
CC(C)N(CCCNC(=O)Nc1ccc(C(C)(C)C)cc1)C[C@H]1O[C@@H](n2cc(Br)c3c(N)ncnc32)[C@H](O)[C@@H]1O	85.8%	89.9%	92.2%	93%	97%	94%	97.9%	88%	81.4%	77.8%	13.8%	87.3%	91.6%	90.8%	86.1%	87.1%	87.2%	91.5%	85.8%	87.1%	74%	47.2%	83.5%	90%	89.6%	88.3%	85.4%	88.6%	91.8%	80.1%	85.4%	68.9%	39.2%
NC(=O)c1c(OCc2c(F)cc(Br)cc2F)nsc1NC(=O)NCCCCN1CCCC1	107%	112%	103%	104%	99.9%	102%	98.8%	100%	89.5%	45.2%	43.8%												123%	126%	116%	111%	108%	111%	111%	96.7%	99.6%	46.9%	68.1%
CO[C@H]1C[C@H]2OC[C@@]2(OC(C)=O)[C@H]3[C@H](OC(=O)C4=CC=CC=C4)[C@]5(O)C[C@H](OC(=O)[C@H](O)[C@@H](NC(=O)OC(C)(C)C)C6=CC=CC=C6)/C(=C(/[C@@H](OC)C(=O)[C@]13C)C5(C)C)C	78.2%	87.6%	29.3%	28.4%	19%	18.9%	18.8%	20.1%	12.1%	13.4%	7.21%	69.9%	81.6%	70.8%	30.4%	11.6%	15.3%	15.2%	15.9%	10.5%	10.6%	10.8%	73.7%	71.1%	67.9%	34.5%	28%	27.7%	24.2%	26.1%	20.2%	21%	11.9%
Cc1n[nH]c2ccc(-c3cncc(OC[C@@H](N)Cc4c[nH]c5ccccc45)c3)cc12												108%	114%	100%	98.9%	88.5%	70.2%	80.3%	35.5%	17.8%	2.32%	1.05%	107%	119%	105%	108%	96.9%	74.8%	64%	38.5%	27.1%	2.44%	1.33%
CN1CCN(CC1)C/2=N/C3=CC=CC=C3NC4=C2C=C(C)S4	98%	93.9%	105%	98.5%	98.8%	104%	107%	96.9%	87.4%	97.4%	91.1%	92.8%	104%	104%	102%	102%	105%	102%	101%	72.2%	102%	84.8%	94.1%	99.9%	97.9%	96.8%	98.3%	99.9%	99.1%	91.4%	92.1%	93%	91.9%
N[C@@H](Cc1cc(I)c(Oc2cc(I)c(O)c(I)c2)c(I)c1)C(=O)O	118%	116%	106%	113%	113%	103%	106%	109%	106%	101%	98.6%	126%	120%	121%	113%	123%	124%	122%	107%	112%	114%	104%	111%	107%	108%	109%	109%	114%	103%	111%	104%	103%	101%
